pIC50: −log10 of the molar value.
tested on: Trypanosoma cruzi; test: Trypanocidal activity against Trypanosoma cruzi Y epimastigotes after 72 hrs by MTT assay; format: functional, organism-based; conditions: not given

`CC(C)=CCCC1(C)C=Cc2cc(C(=O)O)cc(CC=C(C)C)c2O1` (racemic; form 1) [GAUDICHAUDIANIC ACID] was tested, and the pIC50 was 3.95.
In the case of `CC(C)=CCCC1(C)C=Cc2cc(C(=O)O)cc(CC=C(C)C)c2O1` (stereo in doubt; 1) [GAUDICHAUDIANIC ACID], the pIC50 was 4.25.
With `CC(C)=CCCC1(C)C=Cc2cc(C(=O)O)cc(CC=C(C)C)c2O1` (racemic; form 2) [GAUDICHAUDIANIC ACID] the pIC50 was 3.71.

same assay, conditions: Trypanosoma cruzi, Y, 72 h

`CC(C)=CCC[C@]1(C)C=Cc2cc(C(=O)O)cc(CC=C(C)C)c2O1` and `CC(C)=CCC[C@@]1(C)C=Cc2cc(C(=O)O)cc(CC=C(C)C)c2O1` are within 0.2 log units of each other in pIC50: 3.65 for the first, 3.75 for the second.

For `O=C(Cn1ccnc1[N+](=O)[O-])NCc1ccccc1` [BENZNIDAZOLE], the pIC50 was 4.43.
